Assays:
[1] = mouse, in vivo
Experimental: Animals were intragastrically gavaged with a bolus (2 g/kg) of either labeled ^13C2-Butyrate or non-labeled ^12C-Butyrate. The small and large intestines were then harvested 6 hours later and prepared for analysis as above. […] The ratio of the labeled to unlabeled peak areas were adjusted to incorporate natural distribution of ^13C label and expressed as percentage of ^13C incorporation into the butyrate pool in the luminal contents (Lumen) and intestinal tissue.
It was next determined whether there was a difference in the uptake and metabolism of the exogenously administered butyrate between the syngeneic and allogeneic recipients. To this end, metabolic flux analysis (MFA) assessing label incorporation of heavy 13C labeled butyrate into luminal and intestinal tissue butyrate pools was performed by utilizing GC/MS as above. Recipients of syngeneic and allogeneic transplant were treated 7 days after BMT with a bolus of either^13C-butyrate or regular ^12C-butyrate, which served as the control. The IECs and luminal contents were harvested 6 hours later and analyzed for incorporation of ^13C.

[2] = tested on: SLC5A8; experiment: Primary IECs cultured with proinflammatory mediators; format: cell-based, mouse; settings: primary IECs exposed to IFN-γ and/or TNF
Experimental: It was next explored whether the diminished concentration of butyrate observed in the intestinal tissue was from impaired uptake of butyrate following allo-BMT. To this end, the expression of the known butyrate monocarboxylate transporter (SLC5A8) and the receptor of butyrate (GPR43) was analyzed in IECs following allo-BMT (Ganapathy, V., Thangaraju, M., Prasad, P. D., Martin, P. M. & Singh, N. Transporters and receptors for short-chain fatty acids as the molecular link between colonic bacteria and the host. Curr Opin Pharmacol 13, 869-874 (2013); Furusawa, Y. et al. Commensal microbe-derived butyrate induces the differentiation of colonic regulatory T cells. Nature (2013)). […] Primary IECs were cultured with proinflammatory mediators (IFN-γ and/or TNF) and expression of the butyrate transporter SLC5A8 was analyzed.

[3] = IECs from large intestine, allogeneic vs syngeneic recipients

| Molecule | heavy carbon in malate [3] | incorporation into succinate [3] | 13C incorporation in malate (IECs from small and large intestines combined, allo-BMT vs syngeneic) | 13C heavy butyrate in the intestinal tissue [1] | expression of Slc5a8 [2] |
| --- | --- | --- | --- | --- | --- |
| CC[13CH2][13C](=O)[O-].[Na+] [^13C-butyrate, Sodium butyrate-1,2-^13C2] | significant difference | trend towards greater incorporation | overall increased level | significantly decreased |  |
| IFN-γ: proinflammatory mediator (protein, UniProt P01579 24-161, looked up) Interferon gamma: QDPYVKEAENLKKYFNAGHSDVADNGTLFLGILKNWKEESDRKIMQSQIVSFYFKLFKNFKDDQSIQKSVETIKEDMNVKFFNSNKKKRDDFEKLTNYSVTDLNVQRKAIHELIQVMAELSPAAKTGKRKRSQMLFRG |  |  |  |  | significantly decreased |
